Literature values in PubChem BioAssay AID1259409 (Chemical Carcinogenesis Research Information System (CCRIS), 2018).

System: rodent chemically induced tumor inhibition, incidence and multiplicity
Assay: CCRIS tumor inhibitor studies

CC(=O)Oc1ccccc1C(=O)O
tumour outcome (control, treated, inhibition, significance) (Carcinogen: 1,2-DIMETHYLHYDRAZINE DIHYDROCHLORIDE, 306-37-6, Dose [Inhibitor]: 0, 10 MG/KG/D IN 0.2 ML OF 5% SODIUM BICARBONATE FOR 1 WK PRIOR +0 AND 1 WK POST CARCINOGEN DOSE (STUDY DURATION: 36 WK), Route [Inhibitor]: SUBCUTANEOUS, Species: RAT, Strain/Sex: SPRAGUE-DAWLEY/MALE, Target Tissue: Type of Lesion: COLON: ADENOCARCINOMA, Dose [Carcinogen]: 30 MG/KG ONCE, Promoter: NONE USED): 50%, 17%, 66%, p<0.05
tumour outcome (control, treated, inhibition, significance) (Carcinogen: 1,2-DIMETHYLHYDRAZINE DIHYDROCHLORIDE, 306-37-6, Dose [Inhibitor]: 0, 50 MG/KG/D IN 0.6 ML OF 5% SODIUM BICARBONATE BEGINNING 4 WK POST CARCINOGEN DOSE AND CONTINUING FOR DURATION OF STUD, Route [Inhibitor]: SUBCUTANEOUS, Species: RAT, Strain/Sex: SPRAGUE-DAWLEY/MALE, Target Tissue: Type of Lesion: COLON: ADENOCARCINOMA, Dose [Carcinogen]: 30 MG/KG ONCE, Promoter: NONE USED): 42%, 42%, 0%, not significant
tumour outcome (control, treated, inhibition, significance) (Carcinogen: 2-AMINO-1-METHYL-6-PHENYLIMIDAZO[4,5-B]PYRIDINE [105650-23-5], Dose [Inhibitor]: 400 PPM IN DIET FOR 4 WK BEGINNING WK PRIOR TO FIRST CARCINOGEN DOSE (STUDY DURATION: 25 WK), Route [Inhibitor]: ORAL, Species: RAT, Strain/Sex: SPRAGUE-DAWLEY/FEMALE, Target Tissue: Type of Lesion: MAMMARY GLAND: FIBROADENOMA OR DUCTAL CARCINOMA, Dose [Carcinogen]: 85 MG/KG BW 2X/WK FOR 4 WK (STUDY DURATION: 25 WK), Promoter: NONE): 67.7%, 50.0%, 26%, not significant
tumour outcome (control, treated, inhibition, significance) (Carcinogen: 2-AMINO-1-METHYL-6-PHENYLIMIDAZO[4,5-B]PYRIDINE, 105650-23-5, Dose [Inhibitor]: 0, 400 PPM IN HIGH FAT DIET FOR 4 WK BEGINNING 1 WK PRIOR TO CARCINOGEN TREATMENT (STUDY DURATION: 25 WK), Route [Inhibitor]: ORAL, Species: RAT, Strain/Sex: SPRAGUE-DAWLEY/FEMALE, Target Tissue: Type of Lesion: MAMMARY GLAND: CARCINOMA, Dose [Carcinogen]: 85 MG/KG BW IN CORN OIL 8 TIMES IN 10 D, Promoter: NONE USED): 21/31 (68%), 14/30 (47%), 31%, not significant
tumour outcome (control, treated, inhibition, significance) (Carcinogen: 2-AMINO-1-METHYL-6-PHENYLIMIDAZO[4,5-B]PYRIDINE, 105650-23-5, Dose [Inhibitor]: 0, 400 PPM IN HIGH FAT DIET FOR 4 WK BEGINNING 1 WK PRIOR TO CARCINOGEN TREATMENT (STUDY DURATION: 25 WK), Route [Inhibitor]: ORAL, Species: RAT, Strain/Sex: SPRAGUE-DAWLEY/FEMALE, Target Tissue: Type of Lesion: MAMMARY GLAND: FIBROADENOMA, Dose [Carcinogen]: 85 MG/KG BW IN CORN OIL 8 TIMES IN 10 D, Promoter: NONE USED): 3/31 (10%), 2/30 (7%), 30%, not significant
tumour outcome (control, treated, inhibition, significance) (Carcinogen: 4-(METHYLNITROSAMINO)-1-(3-PYRIDYL)-1-BUTANONE, 64091-91-4, Dose [Inhibitor]: 0, 32 MG/KG BW BUFFERED ASPIRIN IN DIET FOR DURATION OF STUDY BEGINNING 2 WK PRIOR TO CARCINOGEN TREATMENT (STUDY DURATI, Route [Inhibitor]: ORAL, Species: MOUSE, Strain/Sex: STRAIN-A/FEMALE, Target Tissue: Type of Lesion: LUNG: TUMOR, Dose [Carcinogen]: 9.1 MG/MOUSE (TOTAL DOSE) ADMINISTERED IN DRINKING WATER OVER 7 WK, Promoter: NONE USED): 23/24 (96%), 15/15 (100%), -4%, not significant
tumour outcome (control, treated, inhibition, significance) (Carcinogen: 4-(METHYLNITROSAMINO)-1-(3-PYRIDYL)-1-BUTANONE, 64091-91-4, Dose [Inhibitor]: 0, 32 MG/KG BW NON-BUFFERED ASPIRIN IN DIET FOR DURATION OF STUDY BEGINNING 2 WK PRIOR TO CARCINOGEN TREATMENT (STUDY DU, Route [Inhibitor]: ORAL, Species: MOUSE, Strain/Sex: STRAIN-A/FEMALE, Target Tissue: Type of Lesion: LUNG: TUMOR, Dose [Carcinogen]: 9.1 MG/MOUSE (TOTAL DOSE) ADMINISTERED IN DRINKING WATER OVER 7 WK, Promoter: NONE USED): 23/24 (96%), 14/14 (100%), -4%, not significant
tumour outcome (control, treated, inhibition, significance) (Carcinogen: 4-(METHYLNITROSAMINO)-1-(3-PYRIDYL)-1-BUTANONE, 64091-91-4, Dose [Inhibitor]: 0, 35 MG/KG BW IN DIET FOR DURATION OF STUDY BEGINNING 2 WK PRIOR TO CARCINOGEN TREATMENT (STUDY DURATION: 25 WK), Route [Inhibitor]: ORAL, Species: MOUSE, Strain/Sex: STRAIN-A/FEMALE, Target Tissue: Type of Lesion: LUNG: TUMOR, Dose [Carcinogen]: 9.1 MG/MOUSE (TOTAL DOSE) ADMINISTERED IN DRINKING WATER OVER 7 WK, Promoter: NONE USED): 23/24 (96%), 14/15 (93%), 3%, not significant
tumour outcome (control, treated, inhibition, significance) (Carcinogen: 4-(METHYLNITROSAMINO)-1-(3-PYRIDYL)-1-BUTANONE, 64091-91-4, Dose [Inhibitor]: 0, 73 MMOL/KG BW/D IN DIET FOR DURATION OF STUDY BEGINNING 2 WK PRIOR TO CARCINOGEN TREATMENT (STUDY DURATION: 25 WK), Route [Inhibitor]: ORAL, Species: MOUSE, Strain/Sex: STRAIN-A/FEMALE, Target Tissue: Type of Lesion: LUNG: TUMOR, Dose [Carcinogen]: 2.2 MMOL/KG BW (TOTAL DOSE) ADMINISTERED IN DRINKING WATER FOR 7 WK, Promoter: NONE USED): 29/29 (100%), 25/25 (100%), 0%, not significant
tumour outcome (control, treated, inhibition, significance) (Carcinogen: 4-(METHYLNITROSAMINO)-1-(3-PYRIDYL)-1-BUTANONE, 64091-91-4, Dose [Inhibitor]: 0, 147 MMOL/KG BW/D IN DIETS FOR DURATION OF STUDY BEGINNING 2 WK PRIOR TO CARCINOGEN TREATMENT (STUDY DURATION: 25 WK), Route [Inhibitor]: ORAL, Species: MOUSE, Strain/Sex: STRAIN-A/FEMALE, Target Tissue: Type of Lesion: LUNG:TUMOR, Dose [Carcinogen]: 2.2 MMOL/KG BW (TOTAL DOSE) ADMINISTERED IN DRINKING WATER FOR 7 WK, Promoter: NONE USED): 29/29 (100%), 24/24 (100%), 0%, not significant
tumour outcome (control, treated, inhibition, significance) (Carcinogen: 4-(METHYLNITROSAMINO)-1-(3-PYRIDYL)-1-BUTANONE, 64091-91-4, Dose [Inhibitor]: 0, 294 MG/KG DIET FOR DURATION OF STUDY BEGINNING 2 WK PRIOR TO CARCINOGEN TREATMENT (STUDY DURATION: 25 WK), Route [Inhibitor]: ORAL, Species: MOUSE, Strain/Sex: STRAIN-A/FEMALE, Target Tissue: Type of Lesion: LUNG: TUMOR, Dose [Carcinogen]: 9.1 MG/MOUSE IN DRINKING WATER FOR 7 WK, Promoter: NONE USED): 29/29 (100%), 24/24 (100%), 0%, not significant
tumour outcome (control, treated, inhibition, significance) (Carcinogen: 4-(METHYLNITROSAMINO)-1-(3-PYRIDYL)-1-BUTANONE, 64091-91-4, Dose [Inhibitor]: 0, 294 MMOL/KG BW/D IN DIET FOR DURATION OF STUDY BEGINNING 2 WK PRIOR TO CARCINOGEN TREATMENT (STUDY DURATION: 25 WK), Route [Inhibitor]: ORAL, Species: MOUSE, Strain/Sex: STRAIN-A/FEMALE, Target Tissue: Type of Lesion: LUNG: TUMOR, Dose [Carcinogen]: 2.2 MMOL/KG BW (TOTAL DOSE) ADMINISTERED IN DRINKING WATER FOR 7 WK, Promoter: NONE USED): 29/29 (100%), 24/24 (100%), 0%, not significant
tumour outcome (control, treated, inhibition, significance) (Carcinogen: 4-(METHYLNITROSAMINO)-1-(3-PYRIDYL)-1-BUTANONE, 64091-91-4, Dose [Inhibitor]: 0, 588 MMOL/KG BW/D IN DIET FOR DURATION OF STUDY BEGINNING 2 WK PRIOR TO CARCINOGEN TREATMENT (STUDY DURATION: 25 WK), Route [Inhibitor]: ORAL, Species: MOUSE, Strain/Sex: STRAIN-A/FEMALE, Target Tissue: Type of Lesion: LUNG: TUMOR, Dose [Carcinogen]: 2.2 MMOL/KG BW (TOTAL DOSE) ADMINISTERED IN DRINKING WATER FOR 7 WK, Promoter: NONE USED): 29/29 (100%), 24/24 (100%), 0%, not significant
tumour outcome (control, treated, inhibition, significance) (Carcinogen: 7,12-DIMETHYLBENZ[A]ANTHRACENE, 57-97-6, Dose [Inhibitor]: 0.6% NEUTRALIZED WITH 12 MG SODIUM CARBONATE DAILY (STUDY DURATION: 14 WK), Route [Inhibitor]: ORAL, Species: HAMSTER, Strain/Sex: SYRIAN/FEMALE, MALE, Target Tissue: Type of Lesion: BUCCAL CELLS: EPIDERMOID TUMORS, Dose [Carcinogen]: 0.5% SOLUTION IN MINERAL OIL 3/WK FOR UP TO 14 WK, Promoter: NONE USED): 6.4%, 4.8%, 25%, p<0.1
tumour outcome (control, treated, inhibition, significance) (Carcinogen: AZOXYMETHANE, 25843-45-2, Dose [Inhibitor]: 0, 200 PPM IN DIET BEGINNING 2 WK PRIOR TO CARCINOGEN TREATMENT AND CONTINUING FOR 52 WK (STUDY DURATION: 54 WK), Route [Inhibitor]: ORAL, Species: RAT, Strain/Sex: F344/MALE, Target Tissue: Type of Lesion: COLON: ADENOCARCINOMA, Dose [Carcinogen]: 15 MG/KG BW 1/WK FOR 2 WK, Promoter: NONE USED): 78%, 53%, 32%, p<0.05
tumour outcome (control, treated, inhibition, significance) (Carcinogen: AZOXYMETHANE, 25843-45-2, Dose [Inhibitor]: 0, 250 PPM IN DIET FOR 13 WK BEGINNING 36 WK POST LAST CARCINOGEN DOSE (STUDY DURATION: 49 WK), Route [Inhibitor]: ORAL, Species: RAT, Strain/Sex: F344/MALE, Target Tissue: Type of Lesion: COLON: ADENOMA, Dose [Carcinogen]: 12 MG/KG BW IN 0.9% SALINE TWICE, Promoter: CHOLIC ACID, 81-25-4): 81%, 94%, -16%, not significant
tumour outcome (control, treated, inhibition, significance) (Carcinogen: AZOXYMETHANE, 25843-45-2, Dose [Inhibitor]: 0, 250 PPM IN DIET FOR 13 WK BEGINNING 36 WK POST LAST CARCINOGEN DOSE (STUDY DURATION: 49 WK), Route [Inhibitor]: ORAL, Species: RAT, Strain/Sex: F344/MALE, Target Tissue: Type of Lesion: SMALL INTESTINE: ADENOCARCINOMA, Dose [Carcinogen]: 12 MG/KG BW IN 0.9% SALINE TWICE, Promoter: CHOLIC ACID, 81-25-4): 23%, 19%, 17%, not significant
tumour outcome (control, treated, inhibition, significance) (Carcinogen: AZOXYMETHANE, 25843-45-2, Dose [Inhibitor]: 0, 250 PPM IN DIET FOR 13 WK BEGINNING 36 WK POST LAST CARCINOGEN DOSE (STUDY DURATION: 49 WK), Route [Inhibitor]: ORAL, Species: RAT, Strain/Sex: F344/MALE, Target Tissue: Type of Lesion: SMALL INTESTINE: ADENOMA, Dose [Carcinogen]: 12 MG/KG BW IN 0.9% SALINE TWICE, Promoter: CHOLIC ACID, 81-25-4): 17%, 47%, -176%, p<0.05
